Experiments:
Type in all cases: cell-based, C57BL/6 mice
[1] = tested on: LYZ secretion by Paneth cells in organoid culture; experiment: Lysozyme functional secretion assay (EnzChek), basal and CCh-stimulated
Description: In addition to the morphological, proteomic, and transcriptional characterization of PC phenotype in ENR+CD and ENR, Applicants sought to measure physiological function by assessing stimulant-induced secretion of antimicrobials. Applicants assessed the dynamics of LYZ accumulation in media supernatant of cultures following media wash, basally and after stimulation with carbachol (CCh), a cholinergic agonist known to induce PC secretion. […] The observed PC secretion in response to CCh is consistent with observations made in ex vivo crypts, though over appreciably longer time scales, likely due to the added diffusion barrier of the organoid structure and matrigel. Applicants next identified how LYZ secretion changes over the course of differentiation. Beginning with an ISC-enriched population, Applicants assayed for secreted LYZ in cell culture supernatants every two days for six days of ENR+CD culture, following a 24-hour stimulation with CCh or without (basal collection/non-stimulated).
Lysozyme functional secretion assay. Lysozyme secretion was measured using a Lysozyme Assay Kit (EnzChek; Thermo Fisher). Briefly, cells suspended in Matrigel in 24-well plates were washed (basal culture media 3X) and either supplemented with 500 μL of basal culture media or basal culture media plus 10 μM Carbachol (CCh, Sigma Aldrich) for 24 hours at 37° C. Following stimulation, culture plates were spun at high speed (>2000 g) for 5 min at RT to pellet cell debris and loose Matrigel. 25 μL of conditioned supernatant was removed from the top of each well and quantified per manufacturer's protocol.

[2] = tested on: organoid single cells (clusters ENR, ENR+CV, ENR+CD); experiment: Seq-Well single-cell RNA-sequencing and transcriptional scoring of ENR+CV, ENR and ENR+CD organoids; conditions: p<2.2×10^−16
Description: Applicants performed scRNA-seq using the Seq-Well platform on cells from ENR+CD and the precursor ENR+CV conditions to analyze alongside conventional ENR organoids. To ensure experimental robustness, Applicants assessed quality metrics for number of genes, unique molecular identifiers (UMIs), mitochondrial genes, and ribosomal genes by cluster, all of which fell within expectation (FIG. 11).
To assess sub-population structure and provide a more robust measure of composition beyond canonical marker genes, Applicants performed unsupervised KNN graph-based clustering on the captured cells (FIG. 4C,D and Table 1 for full gene lists), distinguishing four clusters in each treatment condition. Applicants then scored individual clusters according to the amount of the transcriptome within each cell dedicated to synthesizing the respective enriched proteins from the bulk proteome data.
To confirm and extend the findings of pathway-based modulation, Applicants scored clusters for enrichment or depletion of canonical growth factor-induced pathways.

[3] = tested on: in vitro PCs (CD24+ & LYZ+) in ENR+CD culture; NUPR1; experiment: Trifluoperazine (NUPR1 inhibition) treatment of ENR+CD cultures, flow cytometry of viability and CD24/LYZ populations
Description: Lastly, Applicants sought to use this physiologically-improved in vitro PC system (ENR+CD) to identify novel factors potentially supportive of PC survival or differentiation. […] Intriguingly, Nupr1 is a stress-response gene, known to promote cellular survival and senescence through mediation of autophagy, and has primarily been studied in the context of cancer. Autophagy and stress response have repeatedly been implicated through GWAS study in PCs in IBD, however Nupr1 has only ever been reported in a single IBD GWAS study, and its role in PC biology has not been formally investigated. With the model, Applicants sought to test the role of NUPR1 on in vitro PC survival, through the small molecule inhibition of NUPR1 with trifluoperazine (TFP).
Flow cytometry. Cell clusters were isolated from Matrigel as previously described and resuspended in TrypLE Express at 37° C. for 20 mins to dissociate into single cells. Dissociated cells were centrifuged at 300 g for 3 mins at 4° C. The pellet was resuspended in FACS buffer (1% FBS in PBS, Thermo Fisher Scientific) and strained into a 5-mL filter cap tube using a 40 μm filter. The cell suspension was transferred to a flow prep microcentrifuge tube and centrifuged at 300 rcf for 3 min. Cell pellets were resuspended in a Zombie violet dye (BioLegend 100X) in FACS buffer for viability staining followed with 1% PFA fixation for 20 minutes at RT. Pellets were permeabilized for 20 minutes at RT with staining buffer (0.5% Tween-20 in FACS buffer, Sigma), and co-stained with rabbit anti-human FITC-Lyz (100X) and rat anti-mouse APC-CD24 (100X) antibodies diluted in staining buffer for 45 min at RT. Flow cytometry was performed using a BD LSR II HTS (BD; Koch Institute Flow Cytometry Core at MIT). Initial settings and laser voltages were determined with unstained, single channel stains or secondary-only controls (data not shown). Flow cytometry data was analyzed using FlowJo v10.7 software.

[4] = tested on: intracellular proteome of ENR+CD and ENR organoids; experiment: LC-MS/MS TMT proteomics of ENR+CD versus ENR organoids; conditions: for Average logFC: ENR+CD versus ENR organoids, sample pairs in aggregate (n=4, 2 technical replicates from two biological donors); for M1-1 Log2 Median Normalized / M1-2 Log2 Median Normalized / M2-1 Log2 Median Normalized / M2-2 Log2 Median Normalized: protein abundance ratio ENR+CD versus ENR organoids, LC-MS/MS TMT proteomics; for M1-1 Log2 Median Normalized: sample pair M1-1; for M1-2 Log2 Median Normalized: sample pair M1-2; for M2-1 Log2 Median Normalized: sample pair M2-1; for M2-2 Log2 Median Normalized: sample pair M2-2; for change: up = enriched in ENR+CD, down = enriched in ENR, FDR<0.05 and log fold change cut-off
Description: Because PCs are highly secretory, protein-rich cells, Applicants sought to assess the total intracellular proteome between conditions through liquid chromatography mass spectrometry (LC-MS/MS)-based proteomics. Applicants quantified relative protein abundance across eight samples using isobaric mass tag labeling from four ENR and four ENR+CD samples (M1-1 through M2-2, first digit denotes biological donor, second digit denotes technical replicate) (FIG. 3A). Samples were processed and analyzed in a single 10-plex by LC-MS/MS (FIG. 9A).
To affirm the reproducibility of the associated proteins in the ENR+CD-enriched proteome, Applicants performed relative quantification within differentiation sets.
Mass spectrometry proteomics sample preparation, sequencing, and quantification. Organoid cell pellets were isolated from Matrigel with mechanical dissociation and washed (cold PBS 5X) to remove residual extracellular protein. Proteins were extracted from cell pellets with 8 M urea (Sigma), reduced with 5 mM DTT (Thermo Fisher Pierce) for 45 minutes, alkylated with 10 mM IAA (Sigma) for 45 minutes in the dark, and double digested with both Lysyl Endopeptidase “LysC” (Wako) and trypsin (Promega) overnight at RT. A small aliquot of cellular lysate was removed from each sample for protein quantification via the Pierce™ BCA Protein Assay Kit (Pierce). After proteolytic digestion, the samples were quenched using formic acid to a final concentration of 1.0% and subsequently desalted on 10 mg OASIS HLB solid phase columns (Waters).
The peptides were labeled with TMT-10 isobaric mass tag reagent according to manufacturer's instructions (ThermoFisher Scientific). The peptides were labeled at a 1:8 ratio of peptide to TMT reagent, followed by 1-hour incubation at RT with bench top shaking at 850 rpm. After incubation, a […] of labeled tryptic peptide was removed from each labeled condition, desalted with C18 stage tips, and analyzed via LC-MS/MS using a Thermo Fisher Q Exactive Plus Hybrid Mass Spectrometer (QE-Plus) coupled to a Thermo Fisher EASY-nLC 1000 liquid chromatograph to ensure isobaric label incorporation >95%. An additional 1.0 μg of labeled tryptic peptide was removed from each channel, mixed together, desalted on a C18 stage tip, and analyzed via LC-MS to ensure equal relative protein loads. During these quality control steps, the labeled peptides were stored, unquenched at −80° C.

[5] = doses above luM, in combination with ENR+CD for six days

Row | Compound | Average logFC [4] | M1-1 Log2 Median Normalized [4] | M1-2 Log2 Median Normalized [4] | M2-1 Log2 Median Normalized [4] | M2-2 Log2 Median Normalized [4] | change [4] | further results
1 | C[N+](C)(C)CCOC(N)=O [CCh, carbachol] |  |  |  |  |  |  | plateau of LYZ accumulation in supernatant ([1]; 10 μM, six day ENR+CD culture): plateaued around six hours post-wash; LYZ accumulation in media supernatant after stimulation ([1]; 10 μM, six day ENR+CD culture, post-wash): rapid accumulation of LYZ within two hours; functional LYZ secretion (stimulated relative to basal) over differentiation ([1]; 24-hour stimulation, days four and six of ENR+CD culture): Notable increases in functional secretion
2 | Cc1c[nH]c(-c2cnc(NCCNc3ccc(C#N)cn3)nc2-c2ccc(Cl)cc2Cl)n1 [CHIR, CHIR99021] |  |  |  |  |  |  | Wnt target gene enrichment, effect size ([2]; all ENR+CD clusters vs ENR-4): > 0.999
3 | C[C@H](NC(=O)Cc1cc(F)cc(F)c1)C(=O)N[C@H](C(=O)OC(C)(C)C)c1ccccc1 [DAPT] |  |  |  |  |  |  | Notch target gene depletion, effect size ([2]; ENR+CD-4 vs ENR-4): −0.658
4 | CN1CCN(CCCN2c3ccccc3Sc3ccc(C(F)(F)F)cc32)CC1 [TFP, trifluoperazine] |  |  |  |  |  |  | cellular viability ([3]; added for two days following a six-day course of ENR+CD): profound, but not total, decline in cellular viability; toxicity, preference to PCs (CD24+ & LYZ+) and PC-like populations ([3]; concurrent with 6-day ENR+CD differentiation (FIG. 7C)): dose-dependent toxicity; cell death during differentiation [3, 5]: near total cell death; identity of surviving cells [3, 5]: primarily non-Paneth; selectivity of toxicity between cell populations ([3]; two days following six-day ENR+CD): selectively more toxic to PC and PC-progenitor populations relative to non-PC populations; toxicity, preference to PCs (CD24+ & LYZ+) and PC-like populations ([3]; two-day treatment following 6-day ENR+CD differentiation (FIG. 7D)): dose-dependent toxicity
5 | Q60936 | −1.292 | −1.293 | −1.012 | −1.8255 | −1.133 | down | 
6 | Q60997 | −1.332 | −1.643 | −0.987 | −1.1555 | −1.543 | down | 
